Measurements from paper PMC10463376, “Design, synthesis, in vitro anticancer, molecular docking and SAR studies of new series of pyrrolo[2,3-d]pyrimidine derivatives” (BMC Chemistry, 2023).
“Also recorded” adds a separate entry of the source.

Assays:
[1] = MTT assay, normal cell line BJ1; assay type: cell-based; settings: human, at 100 μg/ml, read-out: MTT cell proliferation mortality assay (%) BJ1
From the text: All of the following steps were done in a sterile Laminar flow class II biosafety cabinet (Baker, SG406INT, Sanford, ME, USA). DMEM was used as a suspension medium for breast cancer (MCF7), colorectal cancer (HCT116), prostate cancer (PC3), liver cancer (HePG2), pancreatic cancer (PACA2) and lung cancer (A549), while normal cell line (BJ1) was suspended in DMEM-F12 medium. The selected cell lines were purchased from American Type Culture Collection (ATCC). The media were supplemented with a 1% antimycotic-antibiotic mixture (10,000 µg/ml streptomycin sulfate, 25 µg/ml Amphotericin B, and 10,000 U/ml Potassium Penicillin) and 1% L-glutamine. 10 × 10^4cells/well were seeded in 96 well microtiter plates and incubated for 24 h at 37 ℃ under 5% carbon dioxide using a water-jacketed Carbon dioxide incubator (Sheldon, SCO5A, OR, USA). […] After the incubation time of 72 h, the medium was removed. Afterward, 40 µl MTT salt ([…]) was added to each well and kept for 4 h under the same conditions of 37 °C and 5% carbon dioxide. Finally, 200 μl of 10% Sodium dodecyl sulfate (SDS) in deionized water was added to each well and incubated overnight at 37 °C. The step of SDS addition was done to stop the reaction and dissolve the formed formazan crystals. The absorbance was then measured at a wavelength of 595 nm and the reference wavelength was set at 620 nm using a microplate multi-well reader (Bio-Rad Laboratories Inc., model 3356, California, USA). […] A statistical significance analysis was determined between the samples and the negative control using an independent t-test by SPSS 11 program. Dimethyl sulfoxide (DMSO) was the vehicle that dissolved our synthesized compounds and its concentration in the cells was less than 0.2%. IC50 values were calculated using the GraphPad Prism 6 program. The degree of selectivity of the synthetic compounds was expressed as SI = IC50 of a pure compound in a normal cell line/IC50 of the same pure compound in the cancer cell line, where IC50 is the concentration of the compound required to kill 50% of the cells.

DR4 = assay: RT-qPCR DR4 mRNA in A549; assay type: cell-based, human
Method: (§1) All of the extractions were conducted on ice with ice-cold reagents. Total RNA from the different cell lines was isolated using Trizol (Invitrogen; Life Technologies, USA) according to the method of Sthoeger et al.. The 260:280 ratios were measured to determine RNA quality after the isolation method was completed according to the manufacturer’s instructions. A high-capacity cDNA reverse transcription kit was used to produce complementary DNA (cDNA) (Applied Biosystems, USA). […] The relative gene expression method (i.e., ΔΔCT) was used to analyze the real-time PCR data, as explained in Applied Biosystem User Bulletin No. 2. Each sample and gene were normalized using the β-actin gene.

DR5 [2] = assay: RT-qPCR DR5 mRNA in A549; assay type: cell-based, human
Method: as §1

CDK4 = assay: RT-qPCR CDK4 mRNA in MCF7; assay type: cell-based, human; settings: MCF7, vs negative control
Method: as §1

BAX = assay: RT-qPCR BAX mRNA in MCF7; assay type: cell-based, human; settings: MCF7, vs negative control
Method: as §1

MCF7 cells = assay: Annexin V-FITC/PI apoptosis flow cytometry, MCF7; assay type: cell-based, human; settings: for percentage of late apoptotic cells (Q1-UR) / percentage of necrotic cells (Q1-UL) / percentage of early apoptotic cells (Q1-LR): MCF7, 24 h, IC50; for percentage of late apoptotic cells (Q1-UR): control 0.41%; for percentage of necrotic cells (Q1-UL): control 1.01%; for percentage of early apoptotic cells (Q1-LR): control 7.8%; for induction of apoptotic death: MCF7 cells
Method: The percentage of apoptotic cells was detected by using Annexin V-FITC kit catalog number (#K101-25). About 2X10^6 of MCF7 and Paca2 cells were washed in 500 µl of 1 × PBS. Then, the cells were centrifuged and the supernatant was discarded. The cells pellet were re-suspended in the annexin V incubation reagent. The annexin V incubation reagent contained 10 μl binding buffer (10 ×), 10 μl propidium iodide, 1 μl annexin V-FITC, and 79 μl deionized water. The cells were incubated in 100 μl annexin V incubation reagent for 15 min in the dark at room temperature. Finally, the apoptotic cell percentage was detected by flow cytometry using the FITC signal detector (usually FL-1) and PI staining by the phycoerythrin emission signal detector (usually FL-2).

DR5 [3] = assay: RT-qPCR DR5 mRNA in Paca2; assay type: cell-based, human; settings: 17 vs both Dox. and negative control
Method: as §1

P53 = assay: RT-qPCR P53 mRNA in Paca2; assay type: cell-based, human; settings: 17 vs both Dox. and negative control
Method: as §1

SMILES	cytotoxicity at 72 h, 100 μg/ml [1] [%]	DR4 mRNA level (DR4)	DR5 mRNA level (DR5 [2])	CDK4 mRNA level (CDK4)	BAX mRNA level (BAX)	percentage of late apoptotic cells (Q1-UR) (MCF7 cells) [%]	percentage of necrotic cells (Q1-UL) (MCF7 cells) [%]	percentage of early apoptotic cells (Q1-LR) (MCF7 cells) [%]	induction of apoptotic death (MCF7 cells)	DR5 mRNA level (DR5 [3])	P53 mRNA level (P53)
COc1ccc(-c2c(Cl)n(-c3ccc(Cl)cc3Cl)c3ncnc(Cl)c23)cc1OC [Compound 4b, 4,6-dichloro-7-(2,4-dichlorophenyl)-5-(3,4-dimethoxyphenyl)-7H-pyrrolo[2,3-d]pyrimidine]	22.5 ± 0.3	up-regulated	up-regulated	–	–	–	–	–	–	–	–
NNc1ncnc2c1c(-c1ccc(Br)cc1)c(Cl)n2-c1ccc(Cl)cc1Cl [Compound 14a, 5-(4-bromophenyl)-6-chloro-7-(2,4-dichlorophenyl)-4-hydrazineyl-7H-pyrrolo[2,3-d]pyrimidine]	30.8 ± 0.2	–	–	lowered; also recorded: down-regulated	up-regulated	–	–	–	–	–	–
COc1ccc(-c2c(Cl)n(-c3ccc(Cl)cc3Cl)c3ncnc(NN)c23)cc1OC [Compound 14b, 6-chloro-7-(2,4-dichlorophenyl)-5-(3,4-dimethoxyphenyl)-4-hydrazineyl-7H-pyrrolo[2,3-d]pyrimidine]	–	–	–	lowered; also recorded: down-regulated	up-regulated	–	–	–	–	–	–
COc1ccc(-c2c(Cl)n(-c3ccc(Cl)cc3Cl)c3ncnc(N4CCN(C)CC4)c23)cc1OC [Compound 16b, 6-chloro-7-(2,4-dichlorophenyl)-5-(3,4-dimethoxyphenyl)-4-(4-methylpiperazin-1-yl)-7H-pyrrolo[2,3-d]pyrimidine]	–	–	–	lowered	up-regulated	1.7	0.96	11.49	induced the apoptotic death	–	–
CN1CCN(c2nc(C(Cl)(Cl)Cl)nc3c2c(-c2ccc(Br)cc2)c(Cl)n3-c2ccc(Cl)cc2Cl)CC1 [Compound 17, 5-(4-bromophenyl)-6-chloro-7-(2,4-dichlorophenyl)-4-(4-methylpiperazin-1-yl)-2-(trichloromethyl)-7H-pyrrolo[2,3-d]pyrimidine]	12.5 ± 1.7	–	–	–	–	–	–	–	–	up-regulated	up-regulated
COc1ccc(-c2c(Cl)n(-c3ccc(Cl)cc3Cl)c3ncnc(N4CCOCC4)c23)cc1OC [Compound 18b, 4-(6-chloro-7-(2,4-dichlorophenyl)-5-(3,4-dimethoxyphenyl)-7H-pyrrolo[2,3-d]pyrimidin-4-yl)morpholine]	20.6 ± 2.1	–	–	lowered; also recorded: down-regulated	up-regulated	0.89	0.76	20.63	induced the apoptotic death	–	–
COc1cccc2c1C(=O)c1c(O)c3c(c(O)c1C2=O)C[C@@](O)(C(=O)CO)C[C@@H]3O[C@H]1C[C@H](N)[C@H](O)[C@H](C)O1 [Dox, Doxorubicin, reference compound]	–	up-regulated	up-regulated	lowered	up-regulated	–	–	–	–	no significant difference	no significant difference
